In patent publication US12624068B2, “Exon skipping by peptide nucleic acid derivatives” (OliPass Corporation, priority 2016, dated 2026):
Oligonucleotides are written 5' to 3', each unit as a sugar letter and its base; * is a phosphorothioate linkage, no mark a phosphodiester; rarer units and linkages stand in square brackets, end groups in braces. Plain capitals give the bases only. {Fethoc} = N-terminal Fethoc cap; [C(1O2)] = modified PNA monomer acting as cytosine, C(pOq) type, 1O2; [C(1O5)] = modified PNA monomer acting as cytosine, C(pOq) type, 1O5; [A(5)] = modified PNA monomer acting as adenine, A(p) type, p=5; [A(6)] = modified PNA monomer acting as adenine, A(p) type, p=6; [G(5)] = modified PNA monomer acting as guanine, G(p) type, p=5; [G(6)] = modified PNA monomer acting as guanine, G(p) type, p=6; [PNA-N] = PNA monomer with natural nucleobase (N: the base); {NH2} = C-terminal amide; [G(G)] = code of the source, not defined here; [Lys] = lysine residue in the chain; [Val] = valine residue in the chain; {Piv} = N-terminal pivaloyl group; {Fmoc} = N-terminal Fmoc cap

How the values were obtained:
10-mer complementary DNA = assay: Tm between PNA derivatives and 10-mer complementary DNA (N- or C-terminal); assay type: binding; details: uncorrected
Procedure: (§1) A mixed solution of 4 μM 10-mer PNA oligomer and 4 μM complementary 10-mer DNA or RNA in 4 mL aqueous buffer (pH 7.16, 10 mM sodium phosphate, 100 mM NaCl) in 15 mL polypropylene falcon tube was incubated at 90° C. for a minute and slowly cooled down to ambient temperature. Then the solution was transferred into a 4 mL quartz UV cuvette, and subjected to Tm measurement at 260 nm on a UV/Visible spectrophotometer as described in the prior art [PCT/KR2009/001256] or with minor modifications. The DNA and RNA for Tm measurement were purchased from Bioneer (www.bioneer.com, Dajeon, Republic of Korea) and used without further purification.
PNA derivatives of Formula I were evaluated for their binding affinity for 10-mer DNAs complementarily targeting either the N-terminal or C-terminal. The binding affinity was assessed by the Tm value for the duplex between PNA and 10-mer complementary DNA. The duplex between PNA derivatives and DNAs of full complementarity usually show Tm values too high to be reliably determined in aqueous buffer solution. The aqueous buffer solution tends to boil off during Tm measurement.

complementary 10-mer DNA = assay: Tm of 10-mer model PNA with complementary 10-mer DNA; assay type: binding; details: for Tm: 4 μM PNA and 4 μM complementary 10-mer DNA, aqueous buffer pH 7.16, uncorrected; for ΔTm (Tm value - Tm value of PNA 10-1): complementary 10-mer DNA
Procedure: The 10-mer PNA oligomers in Table 12 were evaluated for their binding affinity for the complementary 10-mer RNA or DNA by measuring Tm values as described below.
as §1

Substance	Tm Value, 10-mer DNA against C-Terminal (10-mer complementary DNA) [°C]	Tm Value, 10-mer DNA against N-Terminal (10-mer complementary DNA) [°C]	Tm (complementary 10-mer DNA) [°C]	ΔTm (Tm value - Tm value of PNA 10-1) (complementary 10-mer DNA)
Fethoc-GA(5)A-C(1O2)TT-A(5)TC-CTA(5)-CT-NH2 (GAACTTATCCTACT; splice-switching; all peptide nucleic acid (PNA), [A(5)] at 2, 7, 12, [C(1O2)] at 4, 5' {Fethoc}, 3' {NH2}; peptide nucleic acid backbone) [HIF-ASO 4]	53.4	66.0		
Fethoc-CTC(1O2)-A(6)TC-CTA(6)-C(1O2)TT-AA(6)C-NH2 (CTCATCCTACTTAAC; all peptide nucleic acid (PNA), [C(1O2)] at 3, 10, [A(6)] at 4, 9, 14, 5' {Fethoc}, 3' {NH2}; peptide nucleic acid backbone) [HIF-ASO 8]	61.0	73.0		
Fmoc-GTA-GA(5)T-CAC-T-NH2 (GTAGATCACT; all peptide nucleic acid (PNA), [A(5)] at 5, 5' {Fmoc}, 3' {NH2}; model 10-mer peptide nucleic acid written N to C) [PNA 10-2]			55	+4 °C
Fethoc-TG(5)T-TA(6)C-C(1O2)CT-GG(5)G-A(5)-NH2 (TGTTACCCTGGGA; all peptide nucleic acid (PNA), [G(5)] at 2, 11, [A(6)] at 5, [C(1O2)] at 7, [A(5)] at 13, 5' {Fethoc}, 3' {NH2}; peptide nucleic acid written N to C) [SNAP-ASO 2]	87.6	76.0		
Fethoc-TA(5)C-CAG(6)-GC(1O2)A-A(5)GG(6)-C-NH2 (antisense TACCAGGCAAGGC; all peptide nucleic acid (PNA), [A(5)] at 2, 10, [G(6)] at 6, 12, [C(1O2)] at 8, 5' {Fethoc}, 3' {NH2}; peptide nucleic acid backbone) [AR-ASO 4]	84.5	84.3		
Fethoc-G(5)AA(6)-CTT-A(6)TC-CTA(6)-C(1O2)T-NH2 (GAACTTATCCTACT; splice-switching; all peptide nucleic acid (PNA), [G(5)] at 1, [A(6)] at 3, 7, 12, [C(1O2)] at 13, 5' {Fethoc}, 3' {NH2}; peptide nucleic acid backbone) [HIF-ASO 5]	58.0	62.0		
Fethoc-CTT-A(5)CG(6)-C(1O2)AA(5)-AA(5)A-C(1O2)AA(5)-NH2 (CTTACGCAAAAACAA; all peptide nucleic acid (PNA), [A(5)] at 4, 9, 11, 15, [G(6)] at 6, [C(1O2)] at 7, 13, 5' {Fethoc}, 3' {NH2}; peptide nucleic acid written N to C) [SCN-ASO 12]	77.0	76.0		
Piv-Lys-AA(6)C-TTA(6)-TCC(1O2)-TA(6)C-TTA(5)-Val-NH2 (antisense {Piv}[Lys][PNA-A][PNA-A(6)][PNA-C][PNA-T][PNA-T][PNA-A(6)][PNA-T][PNA-C][PNA-C(1O2)][PNA-T][PNA-A(6)][PNA-C][PNA-T][PNA-T][PNA-A(5)][Val]-{NH2}; peptide nucleic acid backbone) [HIF-ASO 10]	60.0	61.0		
Fethoc-CA(6)T-CA(6)T-TTG(5)-TTA(5)-CCC(1O2)-TG(5)-NH2 (CATCATTTGTTACCCTG; all peptide nucleic acid (PNA), [A(6)] at 2, 5, [G(5)] at 9, 17, [A(5)] at 12, [C(1O2)] at 15, 5' {Fethoc}, 3' {NH2}; peptide nucleic acid written N to C) [SNAP-ASO 10]	68.0	61.0		
Fethoc-A(5)GT-G(5)TA(5)-CC(1O2)T-A(5)AA(5)-C-NH2 (AGTGTACCTAAAC; splice-switching; all peptide nucleic acid (PNA), [A(5)] at 1, 6, 10, 12, [G(5)] at 4, [C(1O2)] at 8, 5' {Fethoc}, 3' {NH2}; peptide nucleic acid written N to C) [SCN-ASO 28]	70.0	78.1		
Fmoc-GTA(5)-GAT-CA(5)C-T-NH2 (GTAGATCACT; all peptide nucleic acid (PNA), [A(5)] at 3, 8, 5' {Fmoc}, 3' {NH2}; model 10-mer peptide nucleic acid written N to C) [PNA 10-3]			61	+10 °C
Fethoc-A(6)GA-A(6)CT-CA(6)T-CC(1O2)T-A(6)CT-TA(6)-NH2 (antisense AGAACTCATCCTACTTA; all peptide nucleic acid (PNA), [A(6)] at 1, 4, 8, 13, 17, [C(1O2)] at 11, 5' {Fethoc}, 3' {NH2}; peptide nucleic acid written N to C) [HIF-ASO 11]	61.0	73.4		
Fethoc-A(5)AG-TG(6)T-A(5)CC(1O2)-TAA-A(5)-NH2 (AAGTGTACCTAAA; splice-switching; all peptide nucleic acid (PNA), [A(5)] at 1, 7, 13, [G(6)] at 5, [C(1O2)] at 9, 5' {Fethoc}, 3' {NH2}; peptide nucleic acid written N to C) [SCN-ASO 24]	66.0	77.0		
Fethoc-A(6)TT-TG(5)T-TA(6)C-C(1O2)CT-G(5)G-NH2 (ATTTGTTACCCTGG; all peptide nucleic acid (PNA), [A(6)] at 1, 8, [G(5)] at 5, 13, [C(1O2)] at 10, 5' {Fethoc}, 3' {NH2}; peptide nucleic acid written N to C) [SNAP-ASO 12]	74.0	62.0		
Fethoc-AA(5)G-TG(6)T-A(5)CC(1O2)-TAA(5)-A-NH2 (AAGTGTACCTAAA; splice-switching; all peptide nucleic acid (PNA), [A(5)] at 2, 7, 12, [G(6)] at 5, [C(1O2)] at 9, 5' {Fethoc}, 3' {NH2}; peptide nucleic acid written N to C) [SCN-ASO 22]	65.0	74.0		
Fethoc-AAG(6)-TG(6)T-A(5)CC(1O2)-TA(5)A-A-NH2 (AAGTGTACCTAAA; splice-switching; all peptide nucleic acid (PNA), [G(6)] at 3, 5, [A(5)] at 7, 11, [C(1O2)] at 9, 5' {Fethoc}, 3' {NH2}; peptide nucleic acid written N to C) [SCN-ASO 25]	66.0	78.0		
Fethoc-C(1O5)TT-A(6)TC-CTA(6)-C(1O2)TT-AA(6)C-NH2 (CTTATCCTACTTAAC; all peptide nucleic acid (PNA), [C(1O5)] at 1, [A(6)] at 4, 9, 14, [C(1O2)] at 10, 5' {Fethoc}, 3' {NH2}; peptide nucleic acid backbone) [HIF-ASO 7]	61.0	69.0		
Piv-A(6)TC-CTA(6)-C(1O2)TT-A(5)AC-NH2 (ATCCTACTTAAC; splice-switching; all peptide nucleic acid (PNA), [A(6)] at 1, 6, [C(1O2)] at 7, [A(5)] at 10, 5' {Piv}, 3' {NH2}; peptide nucleic acid backbone) [HIF-ASO 9]	59.0	60.9		
Fethoc-A(6)TT-TG(G)T-TA(5)C-C(1O2)CT-G(5)-NH2 (antisense ATTTGTTACCCTG; all peptide nucleic acid (PNA), [A(6)] at 1, [G(G)] at 5, [A(5)] at 8, [C(1O2)] at 10, [G(5)] at 13, 5' {Fethoc}, 3' {NH2}; peptide nucleic acid written N to C) [SNAP-ASO 9]	76.0	62.0		
Fethoc-TG(6)T-TA(5)A-A(5)TA(5)-CGC(1O2)-AA(5)A-A(5)A-NH2 (TGTTAAATACGCAAAAA; all peptide nucleic acid (PNA), [G(6)] at 2, [A(5)] at 5, 7, 9, 14, 16, [C(1O2)] at 12, 5' {Fethoc}, 3' {NH2}; peptide nucleic acid written N to C) [SCN-ASO 4]	71.6	63.5		
Fethoc-CA(6)T-TTG(5)-TTA(5)-CCC(1O2)-TG(5)-NH2 (antisense CATTTGTTACCCTG; all peptide nucleic acid (PNA), [A(6)] at 2, [G(5)] at 6, 14, [A(5)] at 9, [C(1O2)] at 12, 5' {Fethoc}, 3' {NH2}; peptide nucleic acid written N to C) [SNAP-ASO 8]	68.0	58.0		
Fethoc-AA(5)G-TG(5)T-A(5)CC(1O2)-TA(5)A-A(5)-NH2 (AAGTGTACCTAAA; splice-switching; all peptide nucleic acid (PNA), [A(5)] at 2, 7, 11, 13, [G(5)] at 5, [C(1O2)] at 9, 5' {Fethoc}, 3' {NH2}; peptide nucleic acid written N to C) [SCN-ASO 26]	72.0	75.0		
